Laboratory results as given in BindingDB's records for PubMed 1346637 (Mayo Clinic, 1992).

Columns and labels:
[1] = biological target: T1, Muscarinic acetylcholine receptor M2 (Homo sapiens, UniProt P08172)
T1 sequence (P08172 whole entry): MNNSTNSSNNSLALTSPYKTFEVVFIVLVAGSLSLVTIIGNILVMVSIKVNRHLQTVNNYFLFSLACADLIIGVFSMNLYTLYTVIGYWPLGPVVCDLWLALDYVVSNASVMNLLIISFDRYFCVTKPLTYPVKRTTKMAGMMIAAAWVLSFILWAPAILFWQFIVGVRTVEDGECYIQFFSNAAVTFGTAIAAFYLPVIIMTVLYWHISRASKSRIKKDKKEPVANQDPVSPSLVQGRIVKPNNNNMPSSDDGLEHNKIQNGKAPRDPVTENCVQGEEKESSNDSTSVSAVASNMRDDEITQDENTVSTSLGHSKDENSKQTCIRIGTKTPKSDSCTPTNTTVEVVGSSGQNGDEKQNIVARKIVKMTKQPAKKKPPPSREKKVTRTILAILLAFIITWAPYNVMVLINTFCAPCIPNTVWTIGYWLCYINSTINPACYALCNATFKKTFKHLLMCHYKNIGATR

[2] = biological target: T2, Muscarinic acetylcholine receptor M5 (Homo sapiens, UniProt P08912)
T2 sequence (P08912 whole entry): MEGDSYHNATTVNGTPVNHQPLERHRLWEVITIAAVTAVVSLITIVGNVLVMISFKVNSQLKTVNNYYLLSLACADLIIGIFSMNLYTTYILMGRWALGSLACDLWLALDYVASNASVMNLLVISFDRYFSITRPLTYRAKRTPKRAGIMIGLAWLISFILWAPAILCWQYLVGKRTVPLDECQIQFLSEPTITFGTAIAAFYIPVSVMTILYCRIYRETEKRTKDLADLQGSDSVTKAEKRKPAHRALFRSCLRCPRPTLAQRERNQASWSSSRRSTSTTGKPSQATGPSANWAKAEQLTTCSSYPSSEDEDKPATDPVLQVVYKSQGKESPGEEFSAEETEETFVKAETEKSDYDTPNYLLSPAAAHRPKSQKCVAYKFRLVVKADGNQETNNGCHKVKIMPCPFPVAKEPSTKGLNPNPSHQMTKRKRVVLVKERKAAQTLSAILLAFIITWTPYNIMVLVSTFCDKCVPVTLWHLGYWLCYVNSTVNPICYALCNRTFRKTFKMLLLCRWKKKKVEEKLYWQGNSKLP

[3] = biological target: T3, Muscarinic acetylcholine receptor M4 (Homo sapiens, UniProt P08173)
T3 sequence (P08173 whole entry): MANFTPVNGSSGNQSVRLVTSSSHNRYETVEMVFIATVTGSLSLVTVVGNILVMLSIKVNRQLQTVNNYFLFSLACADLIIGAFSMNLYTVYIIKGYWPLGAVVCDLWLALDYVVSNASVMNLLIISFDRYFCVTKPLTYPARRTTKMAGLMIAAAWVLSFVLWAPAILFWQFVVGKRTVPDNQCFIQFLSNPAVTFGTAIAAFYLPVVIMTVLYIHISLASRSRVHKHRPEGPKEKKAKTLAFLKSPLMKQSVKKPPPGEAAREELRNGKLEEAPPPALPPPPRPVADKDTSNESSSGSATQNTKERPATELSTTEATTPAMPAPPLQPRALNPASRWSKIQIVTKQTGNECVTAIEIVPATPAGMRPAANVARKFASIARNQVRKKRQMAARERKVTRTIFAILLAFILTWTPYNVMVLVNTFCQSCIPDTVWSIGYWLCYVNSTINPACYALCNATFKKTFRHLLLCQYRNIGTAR

| SMILES | Ki [1] [nM] | Ki [2] [nM] | Ki [3] [nM] |
| --- | --- | --- | --- |
| CN1CCN(C2=Nc3cc(F)ccc3Cc3ccccc32)CC1 | 71 | 17 | 14 |
| CN(C)CC/C=C1\c2ccccc2Sc2ccc(Cl)cc21 |  | 25 | 18 |
| CN1CCCCC1CCN1c2ccccc2Sc2ccc([S+](C)[O-])cc21 (centres undefined) | 15 | 60 | 19 |
| OC(CCN1CCCCC1)(c1ccccc1)C1CC2C=CC1C2 (centres undefined) [1-(bicyclo[2.2.1]hept-5-en-2-yl)-1-phenyl-3-(piperidin-1-yl)propan-1-ol] |  | 6.3 | 2.4 |
| OC(CCN1CCCC1)(c1ccccc1)C1CCCCC1 (centres undefined) [1-Cyclohexyl-1-phenyl-3-pyrrolidin-1-yl-propan-1-ol] |  | 24 | 7 |
| CN(C)CCOC1=Cc2ccccc2Sc2ccc(Cl)cc21 [2-Chloro-11-(2-(dimethylamino)ethoxy)dibenzo(b,f)thiepin] |  | 260 | 77 |
| CN1CCN(C2=Nc3ccccc3Oc3ccc(Cl)cc32)CC1 [13-chloro-10-(4-methylpiperazin-1-yl)-2-oxa-9-azatricyclo[9.4.0.0^{3,8}]pentadeca-1(11),3,5,7,9,12,14-heptaene] |  | 241 | 300 |
| O=C(CCCN1CCC(O)(c2ccc(Br)cc2)CC1)c1ccc(F)cc1 [BROMPERIDOL] | 1800 | 4800 | 1700 |
| CC1CCN(CCCC(=O)c2ccc(F)cc2)CC1 [CAS_3575-80-2] | 2400 | > 10000 | 4400 |
| CN1CCN(C2=Cc3cc(Cl)ccc3C(=CC#N)c3ccccc32)CC1 [CAS_79781-95-6] | 470 | 1100 | 1000 |
| CN1CCN(CC/C=C2/c3ccccc3Sc3ccc(S(=O)(=O)N(C)C)cc32)CC1 [MLS000028463] | 2100 | 4310 | 1540 |
| CN1CCN(C2=Nc3cscc3C(=CC#N)c3cscc32)CC1 [NSC_3086153] | 62 | 660 | 430 |
| O=C1CC2(CCCC2)CC(=O)N1CCCCN1CCN(c2nsc3ccccc23)CC1 [TIOSPERONE] | 180 | 3900 | 480 |
